Measurements as given in ChEMBL document CHEMBL1201862, “PubChem BioAssay data set” (2004).
Activity calls are given as the source filed them.

Assays:
[1] = target: T1, Tyrosine-protein phosphatase non-receptor type 7 (Homo sapiens, UniProt P35236); assay type: functional
T1 sequence (P35236 whole entry): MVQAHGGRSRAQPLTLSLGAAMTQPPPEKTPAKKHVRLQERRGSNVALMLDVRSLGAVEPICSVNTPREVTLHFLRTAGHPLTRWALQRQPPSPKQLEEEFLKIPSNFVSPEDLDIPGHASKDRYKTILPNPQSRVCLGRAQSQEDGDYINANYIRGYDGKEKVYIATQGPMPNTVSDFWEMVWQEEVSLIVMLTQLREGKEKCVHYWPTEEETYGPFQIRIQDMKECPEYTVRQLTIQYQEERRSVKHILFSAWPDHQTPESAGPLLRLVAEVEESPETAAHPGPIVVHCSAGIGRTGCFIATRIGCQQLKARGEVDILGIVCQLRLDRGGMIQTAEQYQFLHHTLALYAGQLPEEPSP

[2] = target: T2, Dual specificity protein phosphatase 6 (Rattus norvegicus, UniProt Q64346); assay type: functional
T2 sequence (Q64346 whole entry): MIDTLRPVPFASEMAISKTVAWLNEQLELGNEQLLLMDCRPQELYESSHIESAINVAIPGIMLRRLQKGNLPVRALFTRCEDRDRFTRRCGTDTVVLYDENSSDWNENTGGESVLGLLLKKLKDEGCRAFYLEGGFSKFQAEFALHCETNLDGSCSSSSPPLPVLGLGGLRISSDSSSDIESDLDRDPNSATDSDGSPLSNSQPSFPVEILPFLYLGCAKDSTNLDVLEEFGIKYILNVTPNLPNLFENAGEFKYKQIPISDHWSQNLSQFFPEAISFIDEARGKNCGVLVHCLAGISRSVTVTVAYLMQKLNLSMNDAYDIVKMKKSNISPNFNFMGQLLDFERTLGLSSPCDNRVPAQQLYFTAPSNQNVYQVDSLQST

[3] = target: Glyceraldehyde-3-phosphate dehydrogenase (Homo sapiens, UniProt P04406)
Glyceraldehyde-3-phosphate dehydrogenase, sequence (P04406 whole entry): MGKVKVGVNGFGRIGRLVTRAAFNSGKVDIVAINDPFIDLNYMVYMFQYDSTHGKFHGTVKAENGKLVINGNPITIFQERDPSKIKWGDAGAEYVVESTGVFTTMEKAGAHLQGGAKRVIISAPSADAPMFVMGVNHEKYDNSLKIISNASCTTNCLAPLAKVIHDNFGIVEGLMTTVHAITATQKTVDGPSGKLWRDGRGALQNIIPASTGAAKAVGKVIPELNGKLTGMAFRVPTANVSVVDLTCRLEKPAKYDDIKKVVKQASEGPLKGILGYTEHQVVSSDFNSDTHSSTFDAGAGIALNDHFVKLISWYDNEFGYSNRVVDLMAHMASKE

[4] = target: T2, Dual specificity protein phosphatase 6
[5] = target: T3, G-protein coupled receptor 35 (Homo sapiens, UniProt Q9HC97); experiment: SAR analysis of Antagonists of the GPR35 Receptor using an Image-Based Assay - Set 3. [Related pubchem assays (depositor defined):AID2013, AID2026]; assay type: functional
T3 sequence (Q9HC97 whole entry): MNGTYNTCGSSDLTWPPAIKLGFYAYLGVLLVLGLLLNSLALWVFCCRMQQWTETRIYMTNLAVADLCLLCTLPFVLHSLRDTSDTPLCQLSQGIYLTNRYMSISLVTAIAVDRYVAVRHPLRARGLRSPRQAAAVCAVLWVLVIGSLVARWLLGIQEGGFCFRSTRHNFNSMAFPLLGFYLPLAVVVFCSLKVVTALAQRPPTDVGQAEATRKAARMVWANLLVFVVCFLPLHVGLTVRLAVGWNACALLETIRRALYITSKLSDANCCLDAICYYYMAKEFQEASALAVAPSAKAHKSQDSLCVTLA

[6] = target: T4, G-protein coupled receptor 55 (Homo sapiens, UniProt Q9Y2T6); experiment: inhibition of LPI-stimulated GPR55 beta-arrestin translocation – imaging, U2OS, beta-arrestin-GFP, LPI agonist, primary screen (AID 2013); assay type: functional;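 note: antagonist potency measured as reduced agonist-driven arrestin aggregation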
T4 sequence (Q9Y2T6 whole entry): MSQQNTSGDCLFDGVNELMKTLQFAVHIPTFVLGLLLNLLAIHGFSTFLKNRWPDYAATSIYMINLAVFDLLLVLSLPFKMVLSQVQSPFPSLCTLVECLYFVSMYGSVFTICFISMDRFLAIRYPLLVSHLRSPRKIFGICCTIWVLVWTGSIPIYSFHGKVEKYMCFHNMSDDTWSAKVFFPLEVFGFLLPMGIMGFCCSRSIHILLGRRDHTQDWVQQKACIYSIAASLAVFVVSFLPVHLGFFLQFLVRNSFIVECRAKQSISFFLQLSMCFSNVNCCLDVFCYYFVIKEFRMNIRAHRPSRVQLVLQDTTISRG

[7] = target: T5, Cannabinoid receptor 1 (Homo sapiens, UniProt P21554); experiment: SAR analysis of agonists of the Cannabinoid Receptor 1 using an Image-Based Assay - Set 2. [Related pubchem assays (depositor defined):AID2013, AID2026]; assay type: functional
T5 sequence (P21554 whole entry): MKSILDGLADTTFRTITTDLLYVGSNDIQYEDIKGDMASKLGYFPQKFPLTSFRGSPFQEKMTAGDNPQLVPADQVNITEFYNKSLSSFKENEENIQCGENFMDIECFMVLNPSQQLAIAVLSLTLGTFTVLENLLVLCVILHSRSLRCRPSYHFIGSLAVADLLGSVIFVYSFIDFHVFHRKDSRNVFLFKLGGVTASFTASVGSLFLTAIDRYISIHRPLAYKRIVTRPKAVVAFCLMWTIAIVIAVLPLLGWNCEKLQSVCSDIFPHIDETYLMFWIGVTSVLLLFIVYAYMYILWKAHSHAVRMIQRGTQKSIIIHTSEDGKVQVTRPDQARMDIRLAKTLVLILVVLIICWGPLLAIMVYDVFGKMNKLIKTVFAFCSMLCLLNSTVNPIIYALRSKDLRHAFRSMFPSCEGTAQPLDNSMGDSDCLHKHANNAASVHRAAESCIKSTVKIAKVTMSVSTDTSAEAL

[8] = target: T4, G-protein coupled receptor 55; experiment: blockade of LPI-induced GPR55 arrestin translocation – imaging, U2OS, beta-arrestin-GFP, LPI agonist, set 2, SAR follow-up (AID 2820); assay type: functional
[9] = target: T6, Cannabinoid receptor 2 (Homo sapiens, UniProt P34972); experiment: SAR analysis of agonists of the Cannabinoid Receptor 2 using an Image-Based Assay. [Related pubchem assays (depositor defined):AID2013, AID2026]; assay type: functional
T6 sequence (P34972 whole entry): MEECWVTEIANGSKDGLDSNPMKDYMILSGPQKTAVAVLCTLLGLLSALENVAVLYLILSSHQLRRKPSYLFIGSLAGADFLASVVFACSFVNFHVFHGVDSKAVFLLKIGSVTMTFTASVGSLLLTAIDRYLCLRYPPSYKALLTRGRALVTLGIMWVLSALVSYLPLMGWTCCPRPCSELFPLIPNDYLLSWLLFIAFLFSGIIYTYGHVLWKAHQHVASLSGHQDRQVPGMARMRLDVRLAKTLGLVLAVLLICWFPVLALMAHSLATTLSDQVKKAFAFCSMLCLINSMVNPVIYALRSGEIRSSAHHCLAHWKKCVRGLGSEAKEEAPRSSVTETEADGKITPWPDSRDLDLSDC

[10] = target: T6, Cannabinoid receptor 2; experiment: SAR analysis of antagonists of the Cannabinoid Receptor 2 using an Image-Based Assay. [Related pubchem assays (depositor defined):AID2013, AID2026]; assay type: functional
[11] = target: T5, Cannabinoid receptor 1; experiment: SAR analysis of antagonists of the Cannabinoid Receptor 1 using an Image-Based Assay - Set 2. [Related pubchem assays (depositor defined):AID2013, AID2026]; assay type: functional
[12] = target: T3, G-protein coupled receptor 35; experiment: SAR analysis of Agonists of the GPR35 Receptor using an Image-Based Assay - Set 2. [Related pubchem assays (depositor defined):AID2013, AID2026]; assay type: functional
[13] = target: T7, Sentrin-specific protease 8 (Homo sapiens, UniProt Q96LD8); assay type: functional
T7 sequence (Q96LD8 whole entry): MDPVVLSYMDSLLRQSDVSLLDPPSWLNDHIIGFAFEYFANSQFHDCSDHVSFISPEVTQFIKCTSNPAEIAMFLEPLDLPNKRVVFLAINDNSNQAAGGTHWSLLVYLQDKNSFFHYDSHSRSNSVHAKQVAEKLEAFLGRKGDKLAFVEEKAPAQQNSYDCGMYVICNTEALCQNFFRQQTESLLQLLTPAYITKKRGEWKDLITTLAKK

[14] = target: SUMO E1/E2 (Homo sapiens, UniProt P63279+Q9UBE0+Q9UBT2); experiment: SAR analysis of SUMOylation using HTRF in an in-Vitro dose response assay. [Related pubchem assays (depositor defined):AID2006, AID2011, AID2018, AID2069, AID2658]; assay type: functional
SUMO E1/E2, sequence (Q9UBE0 whole entry): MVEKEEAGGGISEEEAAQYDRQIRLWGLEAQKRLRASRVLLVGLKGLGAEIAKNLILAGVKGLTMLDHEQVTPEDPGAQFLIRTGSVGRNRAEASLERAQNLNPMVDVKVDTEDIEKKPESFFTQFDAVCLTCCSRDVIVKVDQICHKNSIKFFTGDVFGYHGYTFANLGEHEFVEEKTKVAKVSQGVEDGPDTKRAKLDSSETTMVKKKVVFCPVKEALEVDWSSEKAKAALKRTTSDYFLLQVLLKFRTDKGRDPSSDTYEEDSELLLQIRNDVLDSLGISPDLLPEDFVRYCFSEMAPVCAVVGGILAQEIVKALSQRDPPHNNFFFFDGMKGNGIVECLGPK
SUMO E1/E2, sequence (Q9UBT2 whole entry): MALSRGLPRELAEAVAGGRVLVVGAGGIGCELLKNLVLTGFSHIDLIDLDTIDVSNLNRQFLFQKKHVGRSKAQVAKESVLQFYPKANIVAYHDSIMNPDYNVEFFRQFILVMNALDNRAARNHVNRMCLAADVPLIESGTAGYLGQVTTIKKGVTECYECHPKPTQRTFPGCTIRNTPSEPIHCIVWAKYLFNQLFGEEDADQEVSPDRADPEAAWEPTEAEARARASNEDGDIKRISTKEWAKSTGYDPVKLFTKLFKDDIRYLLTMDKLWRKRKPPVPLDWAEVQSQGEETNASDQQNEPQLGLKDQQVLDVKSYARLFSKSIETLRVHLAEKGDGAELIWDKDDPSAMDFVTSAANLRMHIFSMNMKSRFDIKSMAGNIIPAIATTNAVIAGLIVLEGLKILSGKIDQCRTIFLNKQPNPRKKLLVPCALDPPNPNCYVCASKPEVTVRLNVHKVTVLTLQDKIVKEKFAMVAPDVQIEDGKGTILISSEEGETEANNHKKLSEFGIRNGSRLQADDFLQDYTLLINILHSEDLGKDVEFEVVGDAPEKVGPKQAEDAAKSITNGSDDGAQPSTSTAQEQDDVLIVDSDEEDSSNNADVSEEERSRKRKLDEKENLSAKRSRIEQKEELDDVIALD
SUMO E1/E2, sequence (P63279 whole entry): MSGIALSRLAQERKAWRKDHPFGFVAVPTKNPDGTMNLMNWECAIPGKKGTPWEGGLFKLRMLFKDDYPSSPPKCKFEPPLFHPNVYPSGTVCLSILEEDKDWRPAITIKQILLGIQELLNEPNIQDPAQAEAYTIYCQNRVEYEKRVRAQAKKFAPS

[15] = target: Tyrosyl-DNA phosphodiesterase 2 (Homo sapiens, UniProt O95551); experiment: potency against TDP2 phosphodiesterase activity – biochemical, epi absorbance, IC50, dose response (AID 743297)
Tyrosyl-DNA phosphodiesterase 2, sequence (O95551 whole entry): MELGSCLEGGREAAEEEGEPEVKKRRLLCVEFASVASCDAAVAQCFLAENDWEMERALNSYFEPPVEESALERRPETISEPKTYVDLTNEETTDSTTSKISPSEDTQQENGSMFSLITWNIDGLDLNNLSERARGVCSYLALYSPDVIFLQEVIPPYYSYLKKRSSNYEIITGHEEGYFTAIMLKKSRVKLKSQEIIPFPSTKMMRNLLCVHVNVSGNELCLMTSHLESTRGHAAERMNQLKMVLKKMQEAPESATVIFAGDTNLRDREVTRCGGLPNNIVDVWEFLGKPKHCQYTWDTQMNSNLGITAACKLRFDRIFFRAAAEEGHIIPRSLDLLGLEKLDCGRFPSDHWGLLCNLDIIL

[16] = target: T7, Sentrin-specific protease 8; assay type: functional; remark: listed apart in the source
[17] = target: T8, Zinc finger protein mex-5 (Caenorhabditis elegans, UniProt Q9XUB2); experiment: potency of MEX-5 RNA-binding blockers – biochemical, C. elegans, fluorescence polarization, dose response (AID 1960)
T8 sequence (Q9XUB2 whole entry): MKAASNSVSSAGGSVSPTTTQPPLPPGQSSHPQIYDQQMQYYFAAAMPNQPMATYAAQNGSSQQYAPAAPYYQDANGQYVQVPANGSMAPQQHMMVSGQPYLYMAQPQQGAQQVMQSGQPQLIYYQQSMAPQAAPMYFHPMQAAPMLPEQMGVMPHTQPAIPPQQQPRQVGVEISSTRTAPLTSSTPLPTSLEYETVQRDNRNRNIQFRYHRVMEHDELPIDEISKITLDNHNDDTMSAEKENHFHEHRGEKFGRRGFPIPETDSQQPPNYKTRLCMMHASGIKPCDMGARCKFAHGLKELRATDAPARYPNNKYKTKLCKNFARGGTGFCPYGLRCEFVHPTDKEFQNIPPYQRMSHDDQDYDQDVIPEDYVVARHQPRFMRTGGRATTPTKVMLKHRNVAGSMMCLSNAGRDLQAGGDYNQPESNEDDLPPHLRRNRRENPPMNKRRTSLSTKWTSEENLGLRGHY

[18] = target: T9, RNA-binding protein pos-1 (Caenorhabditis elegans, UniProt G5EF15); experiment: disruptors of C. elegans POS-1 RNA interaction – biochemical, fluorescence polarization, dose response (AID 1964);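 note: purified POS-1 fused to maltose binding protein made in E. coli; potency of compounds blocking POS-1 binding to fluorescent RNA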
T9 sequence (G5EF15 whole entry): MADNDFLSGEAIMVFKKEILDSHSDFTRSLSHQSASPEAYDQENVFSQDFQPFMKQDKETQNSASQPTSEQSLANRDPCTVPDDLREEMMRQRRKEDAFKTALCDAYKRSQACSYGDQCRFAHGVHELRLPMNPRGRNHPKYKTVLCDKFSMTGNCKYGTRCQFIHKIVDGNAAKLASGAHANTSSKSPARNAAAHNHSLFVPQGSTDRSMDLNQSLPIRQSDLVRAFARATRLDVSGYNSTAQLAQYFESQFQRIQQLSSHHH

[19] = target: Lysine-specific demethylase 4A (Homo sapiens, UniProt O75164); experiment: inhibition of JMJD2A H3K9me3 demethylation – biochemical, DELFIA europium, cherry-picked samples, selectivity assay for GASC-1 inhibitor project, dose response (AID 488840)
[20] = target: Lysine-specific demethylase 4C (Homo sapiens, UniProt Q9H3R0); experiment: inhibition of JMJD2C H3K9me3 demethylation – biochemical, DELFIA europium, cherry-picked samples, dose response (AID 488835); assay type: functional
[21] = target: Voltage-dependent T-type calcium channel subunit alpha-1H (Homo sapiens, UniProt O95180); experiment: inhibition of CACNA1H calcium flux – cell-based, SynthLib3 library, HEK293 Cav3.2, fluorescence (AID 493041); assay type: functional
[22] = target: Kappa-type opioid receptor (Homo sapiens, UniProt P41145); experiment: SAR analysis of small molecule agonists of the kappa opioid receptor via a luminescent beta-arrestin assay - Set 3. [Related pubchem assays (depositor defined):AID1777, AID1785, AID1786, AID1966, AID2133, AID2136, AID2284, AID2500]; assay type: functional
[23] = target: Large T antigen (Simian virus 40, UniProt P03070); assay type: functional, Betapolyomavirus macacae;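 note: Confirmatory-stage PubChem screen for compounds that inhibit SV40 T antigen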
Large T antigen, sequence (P03070 whole entry): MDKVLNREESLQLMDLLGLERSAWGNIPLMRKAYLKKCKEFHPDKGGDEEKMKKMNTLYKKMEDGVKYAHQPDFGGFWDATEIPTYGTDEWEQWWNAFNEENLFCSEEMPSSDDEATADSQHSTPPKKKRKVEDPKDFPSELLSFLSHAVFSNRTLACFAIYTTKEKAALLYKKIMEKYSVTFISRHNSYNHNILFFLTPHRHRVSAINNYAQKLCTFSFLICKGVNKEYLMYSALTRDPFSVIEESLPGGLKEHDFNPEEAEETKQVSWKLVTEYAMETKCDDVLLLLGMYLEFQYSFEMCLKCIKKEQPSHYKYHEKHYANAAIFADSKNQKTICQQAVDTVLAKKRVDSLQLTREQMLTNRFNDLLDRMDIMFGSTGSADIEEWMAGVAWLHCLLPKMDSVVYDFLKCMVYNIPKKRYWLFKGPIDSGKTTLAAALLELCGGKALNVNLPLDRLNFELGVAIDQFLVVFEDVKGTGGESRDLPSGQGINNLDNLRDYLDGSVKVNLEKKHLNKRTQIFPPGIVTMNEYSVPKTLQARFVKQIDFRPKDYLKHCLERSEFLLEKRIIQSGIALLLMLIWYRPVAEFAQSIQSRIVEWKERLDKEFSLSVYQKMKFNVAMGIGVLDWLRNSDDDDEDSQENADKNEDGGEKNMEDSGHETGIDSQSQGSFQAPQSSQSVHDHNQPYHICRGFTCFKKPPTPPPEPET

[24] = target: Intestinal-type alkaline phosphatase (Homo sapiens, UniProt P09923); experiment: inhibition of human intestinal alkaline phosphatase – biochemical, dose response (AID 488876); assay type: functional
[25] = target: T10, SUMO-activating enzyme (Homo sapiens, UniProt Q9UBT2); experiment: blockers of SAE1/SAE2–UBC9 SUMO transfer – biochemical, HTRF, uHTS, primary screen (AID 2006); assay type: protein-complex assay
T10 sequence (Q9UBE0 whole entry): as the sequence (Q9UBE0 whole entry) above
T10 sequence (Q9UBT2 whole entry): as the sequence (Q9UBT2 whole entry) above

[26] = target: T11, Alkaline phosphatase, tissue-nonspecific isozyme (Homo sapiens, UniProt P05186); experiment: TNAP enzyme inhibition by screening hits, dose response, selectivity assay for mouse IAP inhibitor project, biochemical, human TNAP, uHTS hits (AID 488906); assay type: functional
T11 sequence (P05186 whole entry): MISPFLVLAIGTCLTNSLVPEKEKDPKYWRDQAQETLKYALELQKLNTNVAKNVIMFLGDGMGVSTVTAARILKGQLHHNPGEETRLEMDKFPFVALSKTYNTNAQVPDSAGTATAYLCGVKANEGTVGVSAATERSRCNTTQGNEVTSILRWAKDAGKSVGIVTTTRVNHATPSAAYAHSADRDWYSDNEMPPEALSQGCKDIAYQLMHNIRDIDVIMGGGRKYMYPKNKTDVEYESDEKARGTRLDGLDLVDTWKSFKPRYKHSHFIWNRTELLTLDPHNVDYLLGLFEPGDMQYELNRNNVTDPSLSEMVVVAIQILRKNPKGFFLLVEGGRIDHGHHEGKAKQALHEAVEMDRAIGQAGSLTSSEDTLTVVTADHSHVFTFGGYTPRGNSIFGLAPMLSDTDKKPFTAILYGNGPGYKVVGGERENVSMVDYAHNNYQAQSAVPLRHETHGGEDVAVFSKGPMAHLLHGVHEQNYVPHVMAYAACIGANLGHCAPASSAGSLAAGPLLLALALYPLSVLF

[27] = target: T10, SUMO-activating enzyme; experiment: blockers of UBC9-mediated SUMO conjugation – biochemical, AlphaScreen, SUMOylation inhibitor project, confirmation (AID 2018); assay type: functional
[28] = target: Intestinal-type alkaline phosphatase (Mus musculus, UniProt P24822); experiment: PubChem AID 488785; assay type: functional
Intestinal-type alkaline phosphatase (Mus musculus, UniProt P24822), sequence (P24822 whole entry): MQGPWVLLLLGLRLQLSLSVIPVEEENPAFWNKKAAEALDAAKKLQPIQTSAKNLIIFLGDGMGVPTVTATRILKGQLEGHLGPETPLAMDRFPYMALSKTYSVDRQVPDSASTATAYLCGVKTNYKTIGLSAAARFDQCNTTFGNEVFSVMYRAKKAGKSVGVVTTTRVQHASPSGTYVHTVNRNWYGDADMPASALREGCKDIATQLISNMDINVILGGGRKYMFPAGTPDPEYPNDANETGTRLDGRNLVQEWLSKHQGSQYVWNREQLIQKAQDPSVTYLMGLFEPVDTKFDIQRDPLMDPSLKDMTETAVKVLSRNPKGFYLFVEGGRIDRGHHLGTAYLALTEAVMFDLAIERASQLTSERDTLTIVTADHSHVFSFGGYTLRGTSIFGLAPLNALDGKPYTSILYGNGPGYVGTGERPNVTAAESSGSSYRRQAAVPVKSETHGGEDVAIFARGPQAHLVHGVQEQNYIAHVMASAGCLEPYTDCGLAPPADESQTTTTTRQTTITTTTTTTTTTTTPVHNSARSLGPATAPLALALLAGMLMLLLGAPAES

[29] = viability loss in HeLa cells – cytotoxicity control for MgcRacGAP inhibitor project, dose response (AID 624300); assay type: functional
[30] = decrease of insulin promoter-GFP reporter – imaging, high-content screening, mouse beta cells (AID 1628); assay type: functional; conditions: MIN6
[31] = target: T12, Rac GTPase-activating protein 1 (Homo sapiens, UniProt Q9H0H5); experiment: blockers of MgcRacGAP-driven Rac1 GTP hydrolysis – biochemical, ADP Hunter fluorescence, primary and confirmatory, confirmation (AID 624330); assay type: functional
T12 sequence (Q9H0H5 whole entry): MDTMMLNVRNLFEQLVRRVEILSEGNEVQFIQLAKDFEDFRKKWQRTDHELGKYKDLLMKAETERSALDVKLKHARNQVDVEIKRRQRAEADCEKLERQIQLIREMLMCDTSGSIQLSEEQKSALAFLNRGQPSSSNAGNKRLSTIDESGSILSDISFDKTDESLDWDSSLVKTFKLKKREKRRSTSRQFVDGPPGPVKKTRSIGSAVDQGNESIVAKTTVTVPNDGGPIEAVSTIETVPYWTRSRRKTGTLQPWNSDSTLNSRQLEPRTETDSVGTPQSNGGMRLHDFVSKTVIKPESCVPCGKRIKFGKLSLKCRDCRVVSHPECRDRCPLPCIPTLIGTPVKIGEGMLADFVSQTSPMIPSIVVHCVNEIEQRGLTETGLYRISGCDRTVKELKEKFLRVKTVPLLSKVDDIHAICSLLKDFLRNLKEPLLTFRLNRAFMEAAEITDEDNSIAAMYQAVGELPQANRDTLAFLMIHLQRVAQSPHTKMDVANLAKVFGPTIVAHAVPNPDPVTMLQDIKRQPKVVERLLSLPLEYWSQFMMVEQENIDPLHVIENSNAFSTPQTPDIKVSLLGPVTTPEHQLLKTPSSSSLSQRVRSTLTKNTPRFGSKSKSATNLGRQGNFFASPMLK

[32] = MIN6 cell viability loss – mouse insulinoma, cytotoxicity control, dose response (AID 2122); assay type: functional;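 note: confirmatory high-throughput counterscreen run to flag cytotoxic compounds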

CCOC(=O)C1Nc2c(OC)cccc2C2OCCCC12 (configuration not stated)
IC50 [1]: > 100 µM (not active) | IC50 [2]: > 100 µM (inactive) | IC50 [3]: > 100 µM (not active) | IC50 [4]: > 100 µM (inactive)

Cc1cccc2c1NC(=O)C2(c1ccc(O)cc1)c1ccc(O)cc1
IC50 [5]: 7.66 µM (active) | IC50 [6]: 2.53 µM (active) | EC50 [7]: > 32 µM (inactive) | IC50 [8]: 0.125 µM (active) | EC50 [9]: > 32 µM (inactive) | IC50 [10]: > 32 µM (inactive) | IC50 [11]: 31.3 µM (inactive) | EC50 [12]: > 32 µM (inactive)

Cc1[nH][nH]c(=O)c1C(c1ccc(-c2cccc(C(=O)O)c2)o1)c1c(C)[nH][nH]c1=O
IC50 [13]: 17.8 µM (active) | IC50 [14]: 84.1 µM (active) | IC50 [15]: > 128 µM (inactive) | IC50 [16]: 11.9 µM (active) | EC50 [17]: 5.56 µM (active) | EC50 [18]: 18.1 µM (active)

Cc1ccc(C)c(Cn2c(C(=O)OC(C)C)cc3c2ccn3C)c1
AC50 [19]: 21.9 µM (active) | AC50 [20]: 11.6 µM (active)

O=C(COc1ccc(F)c(Cl)c1)N[C@H]1CCCN(CC2CCCC2)C1
EC50 [21]: 10 µM (active)

FC(F)(F)c1cc(CSc2nnc(-c3ccccn3)n2Cc2cccnc2)ccc1Cl
EC50 [22]: 0.501 µM (active)

NC1=NC(=O)/C(=C\c2ccco2)S1
IC50 [23]: 67.2 µM (active) | IC50 [24]: 19.8 µM (active) | IC50 [25]: 21.7 µM (active) | IC50 [26]: > 100 µM (inactive) | IC50 [27]: 2.89 µM (active) | IC50 [28]: 4.59 µM (active)

COc1ccc(-c2nc(-c3ccc(O)cc3O)cs2)cc1OC
CC50 [29]: 74.7 µM (active) | IC50 [30]: 4.5 µM (active) | IC50 [31]: 55.1 µM (active) | IC50 [32]: 14.1 µM (inactive)
